Source: US12233057B2, “Small molecules for inhibiting chemokine activity and/or cancer cells growth” (AlonBio Ltd., priority 2015, dated 2025)

Tests used:
Assay in all cases: LanthaScreen europium kinase binding assay
MLCK (MLCK2) = MLCK (MLCK2) (Homo sapiens, UniProt Q9H1R3); details: BKT300 at 78% purity
Description: (§1) In order to further characterize the effect of BKT300 on cell signaling, kinase profiling of BKT300 (at 78% purity) was performed (by the Life Technologies SelectScreen® Biochemical Profiling Lab) using a LanthaScreen® europium kinase binding assay to screen 440 kinases.
(§2) The principle of the LanthaScreen® assay is depicted in FIG. 13. Binding of an Alexa Fluor® conjugate or “tracer” to a kinase is detected by addition of a europium (Eu)-labeled anti-tag antibody. Binding of the tracer and antibody to a kinase results in a high degree of FRET, whereas displacement of the tracer with a kinase inhibitor results in a loss of FRET. The kinase tracers are based on ATP-competitive kinase inhibitors, making them suitable for detection of any compounds that bind to the ATP site. Inhibitors that bind the ATP site include both Type I kinase inhibitors, which bind solely to the ATP site, and Type II inhibitors (e.g., imatinib, sorafenib, BIRB-796), which bind to both the ATP site and a second site often referred to as the allosteric site.

DYRK3 = DYRK3 (Homo sapiens, UniProt O43781); details: BKT300 at 78% purity
Description: as §1, §2

CDK1/cyclin A2 = CDK1/cyclin A2 (Homo sapiens, UniProt P06493); details: BKT300 at 78% purity
Description: as §1, §2

GRK5 = GRK5 (Homo sapiens, UniProt P34947); details: BKT300 at 78% purity
Description: as §1, §2

TGFBR2 = TGFBR2 (Homo sapiens, UniProt P37173); details: BKT300 at 78% purity
Description: as §1, §2

PIK3CD = PIK3CD (Homo sapiens, UniProt O00329); details: BKT300 at 78% purity
Description: as §1, §2

CLK4 = CLK4 (Homo sapiens, UniProt Q9HAZ1); details: BKT300 at 78% purity
Description: as §1, §2

NUAK2 = NUAK2 (Homo sapiens, UniProt Q9H093); details: BKT300 at 78% purity
Description: as §1, §2

STK38L (NDR2) = STK38L (NDR2) (Homo sapiens, UniProt Q9Y2H1); details: BKT300 at 78% purity
Description: as §1, §2

CDK11 (Inactive) = CDK11 (Inactive) (Homo sapiens, UniProt Q9BWU1); details: BKT300 at 78% purity
Description: as §1, §2

PAK7 (KIAA1264) = PAK7 (KIAA1264) (Homo sapiens, UniProt Q9P286); details: BKT300 at 78% purity
Description: as §1, §2

SGK2 = SGK2 (Homo sapiens, UniProt Q9HBY8); details: BKT300 at 78% purity
Description: as §1, §2

ICK = ICK (Homo sapiens, UniProt Q9UPZ9); details: BKT300 at 78% purity
Description: as §1, §2

ACVRL1 (ALK1) = ACVRL1 (ALK1) (Homo sapiens, UniProt P37023); details: BKT300 at 78% purity
Description: as §1, §2

PIK3CA = PIK3CA (Homo sapiens, UniProt P42336); details: BKT300 at 78% purity
Description: as §1, §2

MAP4K4 (HGK) = MAP4K4 (HGK) (Homo sapiens, UniProt O95819); details: BKT300 at 78% purity
Description: as §1, §2

MAP4K1 (HPK1) = MAP4K1 (HPK1) (Homo sapiens, UniProt Q92918); details: BKT300 at 78% purity
Description: as §1, §2

BMPR1A (ALK3) = BMPR1A (ALK3) (Homo sapiens, UniProt P36894); details: BKT300 at 78% purity
Description: as §1, §2

DAPK1 = DAPK1 (Homo sapiens, UniProt P53355); details: BKT300 at 78% purity
Description: as §1, §2

EPHA8 = EPHA8 (Homo sapiens, UniProt P29322); details: BKT300 at 78% purity
Description: as §1, §2

MYLK (MLCK) = MYLK (MLCK) (Homo sapiens, UniProt Q15746); details: BKT300 at 78% purity
Description: as §1, §2

KIT T670E = KIT T670E (Homo sapiens, UniProt P10721, T670E); details: BKT300 at 78% purity
Description: as §1, §2

STK38 (NDR) = STK38 (NDR) (Homo sapiens, UniProt Q15208); details: BKT300 at 78% purity
Description: as §1, §2

CDK8/cyclin C = CDK8/cyclin C (Homo sapiens, UniProt P49336); details: BKT300 at 78% purity
Description: as §1, §2

KIT D820E = KIT D820E (Homo sapiens, UniProt P10721, D820E); details: BKT300 at 78% purity
Description: as §1, §2

MAP4K2 (GCK) = MAP4K2 (GCK) (Homo sapiens, UniProt Q12851); details: BKT300 at 78% purity
Description: as §1, §2

STK17B (DRAK2) = STK17B (DRAK2) (Homo sapiens, UniProt O94768); details: BKT300 at 78% purity
Description: as §1, §2

MELK = MELK (Homo sapiens, UniProt Q14680)
Description: as §1, §2

CDC7/DBF4 = CDC7/DBF4 (Homo sapiens, UniProt O00311); details: BKT300 at 78% purity
Description: as §1, §2

MAPK10 (JNK3) = MAPK10 (JNK3) (Homo sapiens, UniProt P53779); details: BKT300 at 78% purity
Description: as §1, §2

TTK = TTK (Homo sapiens, UniProt P33981); details: BKT300 at 78% purity
Description: as §1, §2

Sequence of MELK (Q14680 whole entry): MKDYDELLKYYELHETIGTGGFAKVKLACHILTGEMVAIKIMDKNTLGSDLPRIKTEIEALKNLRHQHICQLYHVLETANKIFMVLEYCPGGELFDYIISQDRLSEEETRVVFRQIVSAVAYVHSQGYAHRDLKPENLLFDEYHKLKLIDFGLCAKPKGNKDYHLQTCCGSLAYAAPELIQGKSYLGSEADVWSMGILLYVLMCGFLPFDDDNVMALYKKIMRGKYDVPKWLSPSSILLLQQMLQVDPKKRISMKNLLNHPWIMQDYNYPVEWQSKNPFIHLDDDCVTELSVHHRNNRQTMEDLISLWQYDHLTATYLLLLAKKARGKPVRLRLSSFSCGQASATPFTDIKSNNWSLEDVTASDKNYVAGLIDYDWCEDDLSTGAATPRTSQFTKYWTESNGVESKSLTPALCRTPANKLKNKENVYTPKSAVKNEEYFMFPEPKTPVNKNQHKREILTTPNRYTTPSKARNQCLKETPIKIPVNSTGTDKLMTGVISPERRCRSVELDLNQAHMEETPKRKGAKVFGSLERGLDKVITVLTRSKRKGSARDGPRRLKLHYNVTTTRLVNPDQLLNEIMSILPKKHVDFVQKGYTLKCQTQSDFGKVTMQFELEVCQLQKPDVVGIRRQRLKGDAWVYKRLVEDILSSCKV
Sequence of DAPK1 (P53355 whole entry): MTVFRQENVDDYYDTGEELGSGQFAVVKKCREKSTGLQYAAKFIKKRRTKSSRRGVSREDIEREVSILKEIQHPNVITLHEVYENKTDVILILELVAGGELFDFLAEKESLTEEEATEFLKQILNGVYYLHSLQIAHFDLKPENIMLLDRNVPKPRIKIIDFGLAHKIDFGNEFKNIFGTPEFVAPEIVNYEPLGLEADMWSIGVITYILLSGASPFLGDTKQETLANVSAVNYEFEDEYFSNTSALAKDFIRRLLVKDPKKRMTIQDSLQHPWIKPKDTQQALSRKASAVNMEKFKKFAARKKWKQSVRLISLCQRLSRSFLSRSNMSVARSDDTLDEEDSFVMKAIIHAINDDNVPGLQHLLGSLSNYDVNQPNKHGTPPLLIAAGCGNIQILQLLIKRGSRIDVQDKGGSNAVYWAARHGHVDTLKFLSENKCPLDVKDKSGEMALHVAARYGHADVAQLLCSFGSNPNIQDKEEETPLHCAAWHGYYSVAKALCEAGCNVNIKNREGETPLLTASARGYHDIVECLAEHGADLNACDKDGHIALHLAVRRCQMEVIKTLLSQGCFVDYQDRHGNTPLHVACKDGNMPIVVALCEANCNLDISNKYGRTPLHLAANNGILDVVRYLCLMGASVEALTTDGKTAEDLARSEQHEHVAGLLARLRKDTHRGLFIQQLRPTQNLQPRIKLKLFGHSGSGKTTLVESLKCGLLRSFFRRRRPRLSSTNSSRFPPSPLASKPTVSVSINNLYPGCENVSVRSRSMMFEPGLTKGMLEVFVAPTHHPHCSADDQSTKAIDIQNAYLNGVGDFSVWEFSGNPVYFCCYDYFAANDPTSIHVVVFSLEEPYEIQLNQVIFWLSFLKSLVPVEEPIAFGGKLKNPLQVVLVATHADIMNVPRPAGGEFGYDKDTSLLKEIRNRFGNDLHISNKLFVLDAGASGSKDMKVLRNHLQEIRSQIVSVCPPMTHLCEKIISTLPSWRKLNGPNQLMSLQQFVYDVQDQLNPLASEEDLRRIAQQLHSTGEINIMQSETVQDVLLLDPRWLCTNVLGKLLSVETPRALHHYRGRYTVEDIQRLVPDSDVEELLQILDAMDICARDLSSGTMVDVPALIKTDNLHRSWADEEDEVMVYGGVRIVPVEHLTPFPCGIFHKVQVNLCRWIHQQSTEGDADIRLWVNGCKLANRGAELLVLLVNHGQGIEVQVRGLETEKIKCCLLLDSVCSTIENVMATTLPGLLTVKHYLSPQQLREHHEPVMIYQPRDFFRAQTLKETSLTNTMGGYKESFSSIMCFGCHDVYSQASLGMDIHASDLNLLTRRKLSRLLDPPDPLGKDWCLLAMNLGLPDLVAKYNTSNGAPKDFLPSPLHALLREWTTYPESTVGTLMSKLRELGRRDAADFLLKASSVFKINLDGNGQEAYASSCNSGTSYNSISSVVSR
Sequence of ACVRL1 (ALK1) (P37023 22-503): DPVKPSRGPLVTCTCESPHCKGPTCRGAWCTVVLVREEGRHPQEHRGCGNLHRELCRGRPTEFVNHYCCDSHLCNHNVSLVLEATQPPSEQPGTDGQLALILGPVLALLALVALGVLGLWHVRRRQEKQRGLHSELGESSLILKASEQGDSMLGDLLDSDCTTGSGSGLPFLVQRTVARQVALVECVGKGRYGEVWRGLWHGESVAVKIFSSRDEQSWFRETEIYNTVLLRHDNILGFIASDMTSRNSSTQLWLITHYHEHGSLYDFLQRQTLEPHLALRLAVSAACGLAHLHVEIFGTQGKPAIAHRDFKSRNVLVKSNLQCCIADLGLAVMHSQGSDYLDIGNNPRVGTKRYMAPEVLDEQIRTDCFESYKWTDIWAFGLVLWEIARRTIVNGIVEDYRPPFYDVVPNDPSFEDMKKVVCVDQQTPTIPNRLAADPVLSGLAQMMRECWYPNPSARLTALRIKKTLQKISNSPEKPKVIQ
Sequence of MAPK10 (JNK3) (P53779 whole entry): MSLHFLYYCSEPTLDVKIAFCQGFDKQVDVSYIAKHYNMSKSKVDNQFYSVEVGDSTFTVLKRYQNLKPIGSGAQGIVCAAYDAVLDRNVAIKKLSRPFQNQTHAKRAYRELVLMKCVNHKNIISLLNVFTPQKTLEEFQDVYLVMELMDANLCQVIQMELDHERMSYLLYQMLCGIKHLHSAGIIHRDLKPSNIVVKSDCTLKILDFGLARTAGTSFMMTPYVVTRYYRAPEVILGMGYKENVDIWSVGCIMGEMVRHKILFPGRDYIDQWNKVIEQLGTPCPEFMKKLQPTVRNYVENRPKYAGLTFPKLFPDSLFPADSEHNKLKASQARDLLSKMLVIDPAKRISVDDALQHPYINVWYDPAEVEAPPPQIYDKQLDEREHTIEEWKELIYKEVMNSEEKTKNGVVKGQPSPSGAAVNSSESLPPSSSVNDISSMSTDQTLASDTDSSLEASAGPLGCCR
Sequence of MAP4K4 (HGK) (O95819 whole entry): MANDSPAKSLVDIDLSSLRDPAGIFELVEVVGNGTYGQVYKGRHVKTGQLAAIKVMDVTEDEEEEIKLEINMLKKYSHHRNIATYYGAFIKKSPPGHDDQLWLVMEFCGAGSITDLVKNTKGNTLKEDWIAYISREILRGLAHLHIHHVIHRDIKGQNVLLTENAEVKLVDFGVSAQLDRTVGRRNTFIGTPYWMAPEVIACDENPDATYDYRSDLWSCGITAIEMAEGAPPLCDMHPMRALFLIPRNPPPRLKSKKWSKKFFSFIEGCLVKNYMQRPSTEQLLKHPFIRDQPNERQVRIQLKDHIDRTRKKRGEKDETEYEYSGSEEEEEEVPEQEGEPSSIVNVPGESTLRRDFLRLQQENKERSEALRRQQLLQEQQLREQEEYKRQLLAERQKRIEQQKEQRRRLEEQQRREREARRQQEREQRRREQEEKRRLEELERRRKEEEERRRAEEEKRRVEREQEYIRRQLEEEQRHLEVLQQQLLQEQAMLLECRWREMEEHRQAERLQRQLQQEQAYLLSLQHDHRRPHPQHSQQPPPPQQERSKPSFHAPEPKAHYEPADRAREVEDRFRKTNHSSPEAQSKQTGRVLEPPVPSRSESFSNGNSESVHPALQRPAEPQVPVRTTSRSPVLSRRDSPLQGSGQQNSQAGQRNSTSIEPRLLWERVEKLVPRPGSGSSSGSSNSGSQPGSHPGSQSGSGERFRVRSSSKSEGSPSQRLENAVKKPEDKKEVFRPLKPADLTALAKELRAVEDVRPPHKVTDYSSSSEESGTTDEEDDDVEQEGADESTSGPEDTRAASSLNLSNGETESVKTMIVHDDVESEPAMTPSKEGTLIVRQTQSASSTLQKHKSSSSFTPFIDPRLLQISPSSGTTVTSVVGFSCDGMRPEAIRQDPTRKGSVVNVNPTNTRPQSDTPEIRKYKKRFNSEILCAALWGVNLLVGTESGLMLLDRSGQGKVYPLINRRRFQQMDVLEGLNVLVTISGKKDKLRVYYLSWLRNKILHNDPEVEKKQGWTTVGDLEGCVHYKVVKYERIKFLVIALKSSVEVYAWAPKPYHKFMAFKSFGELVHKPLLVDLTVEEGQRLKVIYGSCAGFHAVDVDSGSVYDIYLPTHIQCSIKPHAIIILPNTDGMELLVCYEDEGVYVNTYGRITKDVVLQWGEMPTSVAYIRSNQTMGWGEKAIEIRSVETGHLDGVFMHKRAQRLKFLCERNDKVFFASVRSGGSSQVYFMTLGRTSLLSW
Sequence of SGK2 (Q9HBY8 whole entry): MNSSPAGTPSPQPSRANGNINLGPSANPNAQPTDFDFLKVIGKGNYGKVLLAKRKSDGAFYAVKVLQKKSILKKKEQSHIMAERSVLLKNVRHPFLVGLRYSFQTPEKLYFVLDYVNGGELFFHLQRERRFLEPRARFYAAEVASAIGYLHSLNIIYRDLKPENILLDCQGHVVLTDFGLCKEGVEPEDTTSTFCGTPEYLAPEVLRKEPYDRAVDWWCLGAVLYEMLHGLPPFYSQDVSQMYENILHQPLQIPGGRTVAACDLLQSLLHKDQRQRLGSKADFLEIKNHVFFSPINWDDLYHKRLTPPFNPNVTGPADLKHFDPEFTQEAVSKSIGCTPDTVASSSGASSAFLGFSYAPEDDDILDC
Sequence of STK17B (DRAK2) (O94768 whole entry): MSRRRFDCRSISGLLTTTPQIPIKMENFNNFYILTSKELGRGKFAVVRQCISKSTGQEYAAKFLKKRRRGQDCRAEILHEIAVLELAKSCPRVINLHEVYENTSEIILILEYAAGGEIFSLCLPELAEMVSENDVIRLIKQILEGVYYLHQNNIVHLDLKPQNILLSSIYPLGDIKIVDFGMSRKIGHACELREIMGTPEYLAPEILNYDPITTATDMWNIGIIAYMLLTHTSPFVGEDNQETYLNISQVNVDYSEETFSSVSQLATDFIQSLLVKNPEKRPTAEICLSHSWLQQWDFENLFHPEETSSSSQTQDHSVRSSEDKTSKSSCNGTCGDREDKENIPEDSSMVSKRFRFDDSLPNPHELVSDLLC

**Q.** What does the source list for CCCCCc1cc2cc(O)cc(Oc3c(O)cc(O)cc3CCCCC)c2c(=O)o1 [BKT300]?
**A.** % Inhibition (MLCK (MLCK2)): 58%; % Inhibition (DYRK3): 47%; % Inhibition (CDK1/cyclin A2): 45%; % Inhibition (GRK5): 65%; % Inhibition (TGFBR2): 43%; % Inhibition (PIK3CD): 77%; % Inhibition (CLK4): 73%; % Inhibition (NUAK2): 89%; % Inhibition (STK38L (NDR2)): 45%; % Inhibition (CDK11 (Inactive)): 57%; % Inhibition (PAK7 (KIAA1264)): 40%; % Inhibition (SGK2): 43%; % Inhibition (ICK): 41%; % Inhibition (ACVRL1 (ALK1)): 47%; % Inhibition (PIK3CA): 64%; % Inhibition (MAP4K4 (HGK)): 40%; % Inhibition (MAP4K1 (HPK1)): 45%; % Inhibition (BMPR1A (ALK3)): 58%; % Inhibition (DAPK1): 43%; % Inhibition (EPHA8): 50%; % Inhibition (MYLK (MLCK)): 63%; % Inhibition (KIT T670E): 51%; % Inhibition (STK38 (NDR)): 41%; % Inhibition (CDK8/cyclin C): 64%; % Inhibition (KIT D820E): 42%; % Inhibition (MAP4K2 (GCK)): 48%; % Inhibition (STK17B (DRAK2)): 107%; % Inhibition (MELK; BKT300 at 78% purity): 41%; Affinity of BKT300 to the kinase (MELK; based on the kinase screening assay summarized in Table 2, relatively low): few tens; % Inhibition (CDC7/DBF4): 53%; % Inhibition (MAPK10 (JNK3)): 49%; % Inhibition (TTK): 52%
